Assay: xn = mol fraction of the nth substance listed
Conditions: 313.15 K, Fluid (supercritical or subcritical phases), x1 = 0.97; for mass density: Vibrating tube method; for speed of sound: Frequency=5 MHz, Pulse-echo method

O=C=O [carbon dioxide] + CO
Conditions	mass density [kg/m3]	speed of sound [m/s]
17250 kPa	821	–
17275 kPa	821.23	–
17300 kPa	821.48	–
17325 kPa	821.73	–
17350 kPa	821.98	–
17375 kPa	822.18	–
17400 kPa	822.42	–
17425 kPa	822.65	–
17450 kPa	822.87	–
17475 kPa	823.11	–
17500 kPa	823.28	–
17525 kPa	823.52	–
17550 kPa	823.71	–
17575 kPa	823.99	–
17600 kPa	824.21	–
17625 kPa	824.46	–
17650 kPa	824.71	–
17675 kPa	824.95	–
17700 kPa	825.17	–
17725 kPa	825.45	–
17750 kPa	825.67	–
17775 kPa	825.94	–
17800 kPa	826.17	–
17825 kPa	826.41	–
17850 kPa	826.64	–
17875 kPa	826.87	–
17900 kPa	827.14	–
17925 kPa	827.38	–
17950 kPa	827.61	–
17975 kPa	827.85	–
18000 kPa	828.1	–
18025 kPa	828.35	–
18050 kPa	828.6	–
18075 kPa	828.84	–
18100 kPa	829.11	–
18125 kPa	829.36	–
18150 kPa	829.59	–
18175 kPa	829.87	–
18200 kPa	830.13	–
18225 kPa	830.35	–
18250 kPa	830.62	–
18275 kPa	830.86	–
18300 kPa	831.12	–
18325 kPa	831.37	–
18350 kPa	831.62	–
18375 kPa	831.85	–
18400 kPa	832.11	–
18425 kPa	832.31	–
18450 kPa	832.53	–
18475 kPa	832.8	–
18500 kPa	833.03	–
18525 kPa	833.28	–
18550 kPa	833.5	–
18575 kPa	833.75	–
18600 kPa	833.97	–
18625 kPa	834.2	–
18650 kPa	834.43	–
18675 kPa	834.69	–
18700 kPa	834.94	–
18725 kPa	835.15	–
18750 kPa	835.38	–
18775 kPa	835.62	–
18800 kPa	835.84	–
18825 kPa	836.06	–
18850 kPa	836.28	–
18875 kPa	836.55	–
18900 kPa	836.78	–
18925 kPa	837.02	–
18950 kPa	837.22	–
18975 kPa	837.47	–
19000 kPa	837.72	–
19025 kPa	837.93	–
19050 kPa	838.15	–
19075 kPa	838.38	–
19100 kPa	838.61	–
19125 kPa	838.87	–
19150 kPa	839.12	–
19175 kPa	839.32	–
19200 kPa	839.61	–
19225 kPa	839.82	–
19250 kPa	840.03	–
19275 kPa	840.27	–
19300 kPa	840.49	–
19325 kPa	840.71	–
19350 kPa	840.94	–
19375 kPa	841.18	–
19400 kPa	841.4	–
19425 kPa	841.61	–
19450 kPa	841.84	–
19475 kPa	842.08	–
19500 kPa	842.31	–
19525 kPa	842.53	–
19550 kPa	842.75	–
19575 kPa	842.96	–
19600 kPa	843.19	–
19625 kPa	843.37	–
19650 kPa	843.59	–
19675 kPa	843.84	–
19700 kPa	844.02	–
19725 kPa	844.25	–
19750 kPa	844.43	–
19775 kPa	844.64	–
19800 kPa	844.89	–
19825 kPa	845.06	–
19850 kPa	845.27	–
19875 kPa	845.47	–
19900 kPa	845.69	–
19925 kPa	845.91	–
19950 kPa	846.1	–
19975 kPa	846.29	–
20000 kPa	846.53	–
31890 kPa	–	648.6
34940 kPa	–	674.9
39990 kPa	–	714.5
44940 kPa	–	749.7
49940 kPa	–	782
54960 kPa	–	812.2
60140 kPa	–	841.3
65170 kPa	–	867.7
70010 kPa	–	891.8
75170 kPa	–	916.2
80060 kPa	–	938.2

Source: the NIST ThermoML archive (doi:10.1016/j.jct.2016.03.026)
